Like-named read-outs stand apart in the source and are kept apart here.
Tests used:
[1] = Pharmacokinetic parameters in rats (i.v. and p.o. dosing, plasma LC-MS/MS); format: in vivo, male Wistar rats; conditions: rat; for half-life / Cmax / Tmax / bioavailability / Vd: male, Wistar, plasma
Protocol: In this example the pharmacokinetic parameters of Compound 1 of the invention are compared to those of a close analogue of the prior art, i.e. 1,3-dihydro-1-[2-hydroxy-5-(trifluoromethyl)phenyl]-5-(trifluoromethyl)-2H-Benzimidazol-2-one (i.e. NS1619 described WO 01/54711) herein designated the Reference Compound.
The blood samples were centrifuged at 1.300 g at 4° C. for 25 minutes and the resulting plasma samples were stored at <−15° C. pending analysis.
The compounds were dosed as clear solutions in phosphate buffer/Tween 80 (90:10) in a concentration of 3 mg/ml.
Aliquots of samples, calibrants and QC's (100 μl) were pipetted into 1.5 ml eppendorf tubes. To each tube (except matrix blank) was added 300 μl acetonitrile with internal standards. Matrix blank was added 300 μl acetonitrile without internal standard.
The tubes were shaken on a whirlimixer and then centrifuged for 25 minutes at 16.000 g at 5° C. to precipitate proteins.
An aliquot (200 μl) of the supernatant was transferred to another 1.5 ml eppendorf tube and evaporated to dryness under a gentle stream of nitrogen at 40° C. Then the samples were reconstituted in […] (initial composition).
Incorporating the data from the rat plasma analyses, the pharmacokinetic parameters were calculated using WinNonLin Professional Edition version 2.0.

[2] = Stability in solution (water, 0.1M HCl, 0.1M NaOH, 60° C., HPLC); format: physicochemical
Protocol: In this example the stability of Compound 1 of the invention are compared to those of a close analogue of the prior art, i.e. 1,3-dihydro-1-[2-hydroxy-5-(trifluoromethyl)phenyl]-5-(trifluoromethyl)-2H-Benzimidazol-2-one (i.e. NS1619 described in WO 01/54771) herein designated the Reference Compound.
The stability is determined in neutral (H2O), in basic (0.1M NaOH) and in acidic solution (0.1M HCl).
50 ml of water was added to 27 mg of the reference compound. The compound was only partly dissolved. The suspension was stored at 60° C. and after 24 hours 25 ml of methanol was added in order to completely dissolve reference compound. The solution was stored for further 4 hours and then analysed by HPLC (t=28 hours).
50 ml of 0.1M hydrochloric acid was added to 27 mg of the reference compound. The compound was only partly dissolved. The suspension was stored at 60° C. and after 48 hours 25 ml of methanol was added in order to completely dissolve he reference compound. The solution was stored for further 4. hours and then arialysed by HPLC (t=52 hours).
50 ml of 0.1M sodium hydroxide was added to 24 mg of the reference compound. The compound was completely dissolved. The solution was stored at 60° C. and analysed by HPLC after 2 hours (t=2 hours).
50 ml of water was added to 25 mg of Compound 1. The compound was only partly dissolved. The suspension was stored at 60° C., and after 48 hours, 25 ml of acetonitrile was added in order to completely dissolve Compound 1. The solution was stored for further 24 hours and then analysed by HPLC (t=72 hours).
50 ml of 0.1M hydrochloric acid was added to 27 mg of Compound 1. The compound was only-partly dissolved. The suspension was stored at 60° C., and after 48 hours, 25 ml of acetonitrile was added in order to completely dissolve Compound 1. The solution was stored for further 24 hours and then analysed by HPLC (t=72 hours).
50 ml of 0.1M sodium hydroxide was added to 26 mg of Compound 1. The compound was completely dissolved. The solution was stored at 60° C. and analysed by HPLC after 72 hours (t=72 hours).

[3] = molecular target: T1, large conductance calcium-activated potassium (BKCa) channels (Cavia porcellus, UniProt A0A286XP95); conditions: guinea pig airways, via activation of BKCa channels; cited from earlier work
T1 construct: sensory fibers innervating the guinea pig airways; host or cells: guinea pig airway sensory nerve fibers (native tissue)
T1 sequence (A0A286XP95 1-1133): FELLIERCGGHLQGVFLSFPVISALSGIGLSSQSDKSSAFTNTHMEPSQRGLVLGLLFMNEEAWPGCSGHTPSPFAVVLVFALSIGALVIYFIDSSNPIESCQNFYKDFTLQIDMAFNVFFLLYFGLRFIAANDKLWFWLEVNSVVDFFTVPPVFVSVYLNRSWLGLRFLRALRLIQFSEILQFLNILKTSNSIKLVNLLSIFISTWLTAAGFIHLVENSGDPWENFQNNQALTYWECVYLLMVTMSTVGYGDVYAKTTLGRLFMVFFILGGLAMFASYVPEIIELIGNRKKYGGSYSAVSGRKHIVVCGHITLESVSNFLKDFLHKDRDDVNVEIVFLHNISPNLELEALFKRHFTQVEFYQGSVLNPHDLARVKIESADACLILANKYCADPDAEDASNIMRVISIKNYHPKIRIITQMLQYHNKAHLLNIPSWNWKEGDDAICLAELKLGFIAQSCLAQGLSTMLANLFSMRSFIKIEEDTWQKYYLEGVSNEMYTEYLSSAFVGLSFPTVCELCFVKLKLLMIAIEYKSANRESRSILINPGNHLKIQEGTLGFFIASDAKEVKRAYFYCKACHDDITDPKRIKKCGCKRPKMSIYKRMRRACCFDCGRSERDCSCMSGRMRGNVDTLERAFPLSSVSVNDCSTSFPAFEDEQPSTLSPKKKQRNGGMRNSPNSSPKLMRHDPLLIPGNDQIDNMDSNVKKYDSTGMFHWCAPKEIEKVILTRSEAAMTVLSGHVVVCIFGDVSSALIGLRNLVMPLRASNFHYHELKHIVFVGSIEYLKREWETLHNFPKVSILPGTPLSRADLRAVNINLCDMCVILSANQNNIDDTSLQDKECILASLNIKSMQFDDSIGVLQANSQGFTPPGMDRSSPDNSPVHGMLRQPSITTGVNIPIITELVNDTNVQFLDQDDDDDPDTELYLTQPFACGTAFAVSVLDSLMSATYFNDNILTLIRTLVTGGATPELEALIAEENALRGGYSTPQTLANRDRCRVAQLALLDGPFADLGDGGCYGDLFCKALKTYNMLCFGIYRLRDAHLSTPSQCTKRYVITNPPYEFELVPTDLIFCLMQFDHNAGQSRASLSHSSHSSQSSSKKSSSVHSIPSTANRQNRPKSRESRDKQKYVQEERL

[4] = iv, i.v. 3 mg/kg, time-points 5 min–5 h, read-out: T1/2 (i.v.) (converted)
[5] = po, p.o. 30 mg/kg, i.v. 3 mg/kg
[6] = po, p.o. 30 mg/kg, time-points 3–24 h (Ref. Cpd.), 2–24 h (Cpd. 1), read-out: T1/2 (p.o.) (converted)

Structure (SMILES)	half-life [1, 4] [h]	Cmax ([1]; po, p.o. 30 mg/kg) [ng/mL]	Tmax ([1]; po, p.o. 30 mg/kg) [h]	bioavailability [1, 5] [%]	half-life [1, 6] [h]	Vd [1] [L/kg]	Time after which Cmax after p.o. administration is reached ([1]; p.o.) [min]	Area% (UV 225 nm) of the Test Substance ([2]; HCl (0.1M), 60° C., Initial) [%]	Area% (UV 225 nm) of the Test Substance ([2]; NaOH (0.1M), 60° C., Initial) [%]	Area% (UV 225 nm) of the Test Substance ([2]; Water, 60° C., Initial) [%]	further results
O=c1[nH]c2cc(Cl)ccc2n1-c1cc(Cl)ccc1O [Compound 1, 5-Chloro-1-(5-chloro-2-hydroxy-phenyl)-1,3-dihydro-benzimidazole-2-one]	0.8	4200	0.5	97	3.2	1.9	30	99.7	99.7	99.7	Absorption compared to the reference compound ([1]; p.o.): faster absorption; Half-life after p.o. administration compared to the reference compound ([1]; p.o.): slightly longer; Area% (UV 225 nm) of the Test Substance ([2]; HCl (0.1M), 60° C., t = 72 hours): 99.6%; Area% (UV 225 nm) of the Test Substance ([2]; NaOH (0.1M), 60° C., t = 72 hours): 99.4%; Area% (UV 225 nm) of the Test Substance ([2]; Water, 60° C., t = 72 hours): 99.6%
O=c1[nH]c2cc(C(F)(F)F)ccc2n1-c1cc(C(F)(F)F)ccc1O [Reference Compound, 1,3-dihydro-1-[2-hydroxy-5-(trifluoromethyl)phenyl]-5-(trifluoromethyl)-2H-Benzimidazol-2-one]	1.7	10000	3	145	2.5	1.1	180	98.4	98.4	98.4	Area% (UV 225 nm) of the Test Substance ([2]; HCl (0.1M), 60° C., t = 52 hours): 98.4%; Area% (UV 225 nm) of the Test Substance ([2]; NaOH (0.1M), 60° C., t = 2 hours): 0.0%; Area% (UV 225 nm) of the Test Substance ([2]; Water, 60° C., t = 28 hours): 96.7%; Stability in 0.1 M NaOH (in words) ([2]; dissolved in 0.1 M NaOH): degrades instantly; Stability in solution (in words) ([2]; neutral, acidic and basic solution, 60° C.): unstable in neutral to basic solutions; Effect on activity of myelinated and non-myelinated airway sensory fibers [3]: inhibits the activity

From patent US7244756B2, “Benzimidazol-2-one derivatives and their use” (Poseidon Pharmaceuticals A/S, priority 2002, dated 2007)
